In patent US10519150B2, “Salts of morpholine derivative, crystal forms thereof, processes for producing the same, pharmaceutical compositions including the same, and use thereof” (SHANGHAI PHARMACEUTICALS HOLDING CO., LTD., priority 2015, dated 2019):
Entries after “also recorded” stand apart in the source; their conditions may differ. Counter-ions that a name gives are not always drawn.

Legend:
[1] = Solubility test in pure water; format: physicochemical; settings: for Solubility: pure water, 25° C., 5 mg sample; for water solubility: summary statement in description
Description: 5 mg of each of the free base and salts of the morpholine derivative in Examples 1-7 was added with pure water gradually at 25° C., until all the samples were completely dissolved. The solubility of each sample was calculated based on the actual weight of the sample and the amount of water.

[2] = Hygroscopicity test (weight change as humidity increased from 20% to 80%); format: physicochemical; settings: for Weight change in 20%-80% humidity: 5 mg sample, humidity increased from 20% to 80%; for Level (hygroscopicity): 20%-80% humidity
Description: 5 mg of each of the salts of the morpholine derivative in the examples was measured for their weight change as the humidity was increased from 20% to 80%.

[3] = Stability test under oxidation condition; format: physicochemical; settings: for Types of new impurities (type) / The decomposed amount (%): closed container with hydrogen peroxide urea, 40° C., 12 days; for The decomposed amount (%): chiral HPLC vs day 0; for stability under oxidation condition in words: text statement
Description: The stability test was conducted on 10 mg of each of the free base and salts of the morpholine derivative in the examples under oxidation condition.

[4] = Stability test under light condition; format: physicochemical; settings: for stability under light condition in words: text statement; for The decomposed amount (%): light box 4500 Lx ± 500 Lx, 25° C., 12 days, chiral HPLC vs day 0
Description: The stability test was carried out on 10 mg of each of the free base, salts of the morpholine derivative in Examples 1-6 under light condition.

[5] = Dynamic Vapor Sorption Analysis (DVS); format: physicochemical; settings: for hygroscopicity in words: text statement
Description: Dynamic Vapor Sorption Analysis (DVS) data was taken from a TA Instruments Q5000 TGA, instrument control software was Thermal Advantage, and analysis software was Universal Analysis. Generally, 1 to 10 mg of the sample was placed in a platinum crucible, the TA software generally recorded the weight change of the sample as the relative humidity changed from 0% to 80% to 0%. According to the specific conditions of the sample, different adsorption and desorption steps might also be applied to the sample.

[6] = background statement on prior-art free base; cited from earlier work
[7] = background statement on prior-art free base; cited from earlier work; remark: listed apart in the source

Row | Compound | Solubility [1] [mg/mL] | water solubility [1] [mg/mL] | Weight change in 20%-80% humidity [2] [%] | Types of new impurities (type) [3] [type] | The decomposed amount (%) [3] [%] | stability under light condition in words [4] | hygroscopicity in words [5] | Level (hygroscopicity) [2] | The decomposed amount (%) [4] [%] | DVS weight change in a range of 20%-80% humidity [5] | further results
1 | COC(=O)NCCCn1nc([C@@H](C)N(C(=O)[C@H]2CNCCO2)C2CC2)c2ccc(C)nc21 [morpholine derivative acetate] | 150 to 300 | 150 to 300 | 21.30 | 5 | 95.71 | good thermal stability | deliquesced | – | – | – | DVS weight loss during the drying stage ([5]; 0% of the initial humidity): about 5%; DVS moisture absorbed, amount of its weight ([5]; 20% to 60% humidity): 6.4%; DVS moisture absorbed, amount of its weight ([5]; 90% of humidity): 40%
2 | COC(=O)NCCCn1nc([C@@H](C)N(C(=O)[C@H]2CNCCO2)C2CC2)c2ccc(C)nc21 [morpholine derivative free base, methyl (3-(3-((R)-1-((R)—N-cyclopropylmorpholine-2-carboxamido)ethyl)-6-methyl-1H-pyrazolo[3,4-b]pyridin-1-yl)n-propyl)carbamate, reference compound] | 5 to 10 | – | – | 6 | 38.0 | – | – | difficult | 100 | – | water solubility in words [6]: poor water solubility; oxidation stability in words [7]: relatively easy to be oxidized
3 | COC(=O)NCCCn1nc([C@@H](C)N(C(=O)[C@H]2CNCCO2)C2CC2)c2ccc(C)nc21 [morpholine derivative hydrochloride] | >500 | > 500 | 31.80 | 6 | 63.53 | good thermal stability | deliquescent; also recorded: very hydroscopic | Very easy | 5.27 | – | DVS water absorbed in 0% to 60% RH ([5]; 0% to 60% RH): 15%
4 | COC(=O)NCCCn1nc([C@@H](C)N(C(=O)[C@H]2CNCCO2)C2CC2)c2ccc(C)nc21 [morpholine derivative malate] | 100 | ~100 | 1.70 | 2 | 8.46 | better stability | – | – | 2.05 | about 1.2% | stability under oxidation condition in words [3]: better stability
5 | COC(=O)NCCCn1nc([C@@H](C)N(C(=O)[C@H]2CNCCO2)C2CC2)c2ccc(C)nc21 [morpholine derivative naphthalene disulfonate] | >500 | > 500 | – | 7 | 51.47 | good thermal stability | very hydroscopic | Very easy | 12.58 | – | –
6 | COC(=O)NCCCn1nc([C@@H](C)N(C(=O)[C@H]2CNCCO2)C2CC2)c2ccc(C)nc21 [morpholine derivative tartrate crystal form A] | 100 | – | 1.50 | 6 | 17.93 | – | hardly hydroscopic | difficult | 2.14 | about 1.5% | stability under light condition in words ([4]; listed as crystal form A): equivalent stability; hygroscopicity in words ([5]; listed as crystal form A): hardly hydroscopic
7 | COC(=O)NCCCn1nc([C@@H](C)N(C(=O)[C@H]2CNCCO2)C2CC2)c2ccc(C)nc21 [morpholine derivative tartrate crystal form B] | 150 to 300 | – | 6.58 | 4 | 3.24 | – | relatively hydroscopic | easy | 3.61 | about 7% | stability under oxidation condition in words ([3]; listed as crystal form B): more stable than crystal form A; stability under light condition in words ([4]; listed as crystal form B): equivalent stability; hygroscopicity in words ([5]; listed as crystal form B): relatively hydroscopic
8 | COC(=O)NCCCn1nc([C@@H](C)N(C(=O)[C@H]2CNCCO2)C2CC2)c2ccc(C)nc21 [morpholine derivative tartrate dihydrate] | 100 | – | 9.05 | – | – | – | relatively hydroscopic | easy | – | – | DVS weight change in a range of 0%-80% humidity ([5]; 0%-80% humidity): about 11.06%
9 | COC(=O)NCCCn1nc([C@@H](C)N(C(=O)[C@H]2CNCCO2)C2CC2)c2ccc(C)nc21 [morpholine derivative tartrate] | – | 50 to 300 | – | – | – | – | – | – | – | – | –
